{"source": "patent US20220117938A1", "about": "“COMBINATON THERAPY WITH A DON PRODRUG AND AN IMMUNE CHECKPOINT INHIBITOR” (DRACEN PHARMACEUTICALS, INC., priority 2019, published 2022)", "tested_on": "EL4 tumors", "test": "Anti-tumor efficacy of Compound 1 with and without anti-PD-1 in the subcutaneous EL4 murine lymphoma model (Example 2C)", "format": "in vivo, Mus musculus", "conditions": "for ILS (%) / MST: endpoint tumor volume 2000 mm^3", "experimental": "Female C57BL/6 mice were inoculated subcutaneously at the right flank with EL4 cells for tumor development. Five days after tumor inoculation, 48 mice with tumor size ranging from 50-76 mm^3 (average tumor size 65 mm^3) were selected and assigned into 6 groups using stratified randomization with 8 mice per group based upon their tumor volumes. The treatments were started from the day of randomization (defined as D0), Group 1 was treated with Vehicle (Tween 80:Ethanol:Saline—5:5:90 v/v/v), s.c., qd×4, Group 2 was treated with anti-PD-1 10 mg/kg i.p. q4d×4, Group 3 was treated with Compound 1 0.3 mg/kg s.c. q.d.×14, Group 4 was treated with Compound 1 0.3 mg/kg s.c. q.d.×14+anti-PD-1 10 mg/kg i.p. q4d×4, Group 5 was treated with Compound 1 1 mg/kg s.c. q.d.×14, Group 6 was treated with Compound 1 1 mg/kg s.c. q.d.×14+anti-PD-1 10 mg/kg i.p. q4d×4. The tumor sizes were measured three times per week during the treatment. The entire study was terminated on D19 after start of the treatment.\nAnimal Species: Mus musculus; Strain: […]; Age: 6-8 weeks; Sex: female; Body weight (at treatment start): 17-22 g.\nThe EL4 tumor cells were maintained in vitro as a monolayer culture in DMEM medium supplemented with 10% heat inactivated horse serum and 100 μg/mL penicillin streptomycin at 37° C. in an atmosphere of 5% CO2 in air. The tumor cells were routinely subcultured twice weekly by trypsin-EDTA treatment. The cells growing to a confluency around 70%-80% were harvested and counted for tumor inoculation. The cultured EL4 were harvested, re-suspended in base medium at a density of […] with viability>90%. Each mouse was inoculated subcutaneously at the right flank with 2×10^5 in 0.1 ml base medium for tumor development.\nThe treatments were started on day 5 after tumor inoculation when the tumor size reached 50-76 mm^3 (average tumor size 65 mm^3). Each group consisted of 8 tumor bearing mice. The testing article was administrated at the dosing volume indicated to the mice according to the predetermined regimen as shown Table 2C-1. Testing article formulations were prepared according to standard procedures. Details regarding tumor measurements and endpoints, and statistical analysis are provided in EXAMPLE 3.\nTumor sizes were measured three times a week in two dimensions using a caliper, and the volume expressed in mm^3 using the formula: V=0.5 a×b^2 where a and b are the long and short diameters of the tumor, respectively. The tumor sizes were then used for the calculations of both tumor growth inhibition (TGI) and T/C values.\nTGI is calculated for each group using the formula: […]\nTVTreatment_DayN is the average tumor volume of a treatment group on a given day, TVTreatment_Day0 is the average tumor volume of the treatment group on the first day of treatment, TVVehicle_DayN is the average tumor volume of the vehicle control group on a given day, and TVVehicle_Day0 is the average tumor volume of the vehicle group on the first day of treatment.\nThe T/C value (in percent) is an indication of antitumor effectiveness, T/C (%)=RTVTreatment/RTVControl×100% (RTVTreatment: the mean RTV of the treatment group; RTVControl: the mean RTV of the vehicle treated group). RTV (relative tumor volume)=TVDayN/TVDay0. TVDayN and TVDay0 is the tumor volume on day N and Day 0 respectively. T/C (%)≤42% is considered as significant antitumor activity and <10% is considered as highly significant antitumor activity by the National Cancer Institute criteria.\nAnimal survival curve: When an individual animal reached to the termination endpoint (TV>2000 mm^3), the mouse was euthanized. The time from treatment initiation to the termination was deemed as its survival time. Survival curve was plotted by Kaplan-Meier method. Median survival time (MST) was calculated for each group. Increase of life span (ILS) was calculated according to the following formula: […]\nILS (%)>25% is considered as a biologically significant survival benefit. […]", "data": [{"smiles": "CC(=O)N[C@@H](Cc1c[nH]c2ccccc12)C(=O)N[C@@H](CCC(=O)C=[N+]=[N-])C(=O)OC(C)C", "note": "[Compound 1, Isopropyl (S)-2-((S)-2-acetamido-3-(1H-indol-3-yl)propanamido)-6-diazo-5-oxohexanoate]", "values": [{"measurement": "ILS (%)", "setting": "Compound 1 0.3 mg/kg", "value": 0, "unit": "%"}, {"measurement": "MST", "setting": "Compound 1 0.3 mg/kg", "value": 9, "unit": "days"}, {"measurement": "ILS (%)", "setting": "Compound 1 1 mg/kg", "value": 35.7, "unit": "%"}, {"measurement": "MST", "setting": "Compound 1 1 mg/kg", "value": 14, "unit": "days"}, {"measurement": "RTV at day 7", "setting": "Cpd. 1 0.3 mg/kg", "value": "21.9 ± 1.51"}, {"measurement": "RTV at day 7", "setting": "Cpd. 1 1 mg/kg", "value": "11.2 ± 1.25"}, {"measurement": "Tumor volume (Mean ± SEM)", "setting": "Day 0, Cpd. 1 0.3 mg/kg", "value": "65 ± 3", "unit": "mm^3"}, {"measurement": "Tumor volume (Mean ± SEM)", "setting": "Day 0, Cpd. 1 1 mg/kg", "value": "65 ± 3", "unit": "mm^3"}, {"measurement": "Tumor volume (Mean ± SEM)", "setting": "Day 2, Cpd. 1 0.3 mg/kg", "value": "245 ± 6", "unit": "mm^3"}, {"measurement": "Tumor volume (Mean ± SEM)", "setting": "Day 2, Cpd. 1 1 mg/kg", "value": "194 ± 15", "unit": "mm^3"}, {"measurement": "Tumor volume (Mean ± SEM)", "setting": "Day 5, Cpd. 1 0.3 mg/kg", "value": "763 ± 29", "unit": "mm^3"}, {"measurement": "Tumor volume (Mean ± SEM)", "setting": "Day 5, Cpd. 1 1 mg/kg", "value": "613 ± 62", "unit": "mm^3"}, {"measurement": "T/C", "setting": "Day 7, Cpd. 1 0.3 mg/kg", "value": 73.86, "unit": "%"}, {"measurement": "TGI", "setting": "Day 7, Cpd. 1 0.3 mg/kg", "value": 28.88, "unit": "%"}, {"measurement": "Tumor volume (Mean ± SEM)", "setting": "Day 7, Cpd. 1 0.3 mg/kg", "value": "1391 ± 41", "unit": "mm^3"}, {"measurement": "T/C", "setting": "Day 7, Cpd. 1 1 mg/kg", "value": 37.76, "unit": "%"}, {"measurement": "TGI", "setting": "Day 7, Cpd. 1 1 mg/kg", "value": 64.42, "unit": "%"}, {"measurement": "Tumor volume (Mean ± SEM)", "setting": "Day 7, Cpd. 1 1 mg/kg", "value": "728 ± 96", "unit": "mm^3"}]}]}
